Experimental data as given in patent US20260027116A1, “Methods of Treating Chronic Graft-Versus-Host Disease Following Allogeneic Hematopoietic Stem Cell Transplantation” (Kadmon Corporation, LLC, priority 2022, published 2026).

Tested on: patients with cGVHD

CC(C)NC(=O)COc1cccc(-c2nc(Nc3ccc4[nH]ncc4c3)c3ccccc3n2)c1 [Belumosudil, 2-{3-[4-(1H-indazol-5-ylamino)-2-quinazolinyl]phenoxy}-N-(propan-2-yl) acetamide]
Vertigo: # Events (Cohort 1 200 mg QD): 2 | Vertigo: Affected/At Risk (%) (Cohort 1 200 mg QD): 2/17 (11.76%) | Vision blurred: # Events (Cohort 1 200 mg QD): 0 | Vision blurred: Affected/At Risk (%) (Cohort 1 200 mg QD): 0/17 (0%) | Vomiting: # Events (Cohort 1 200 mg QD): 4 | Vomiting: Affected/At Risk (%) (Cohort 1 200 mg QD): 2/17 (11.76%) | Weight decreased: # Events (Cohort 1 200 mg QD): 1 | Weight decreased: Affected/At Risk (%) (Cohort 1 200 mg QD): 1/17 (5.88%) | Weight increased: # Events (Cohort 1 200 mg QD): 9 | Weight increased: Affected/At Risk (%) (Cohort 1 200 mg QD): 3/17 (17.65%) | White blood cell count decreased: # Events (Cohort 1 200 mg QD): 1 | White blood cell count decreased: Affected/At Risk (%) (Cohort 1 200 mg QD): 1/17 (5.88%) | Abdominal distension: # Events (Cohort 2 200 mg BID): 0 | Abdominal distension: Affected/At Risk (%) (Cohort 2 200 mg BID): 0/16 (0%) | Abdominal pain upper: # Events (Cohort 2 200 mg BID): 1 | Abdominal pain upper: Affected/At Risk (%) (Cohort 2 200 mg BID): 1/16 (6.25%) | Abdominal pain: # Events (Cohort 2 200 mg BID): 4 | Abdominal pain: Affected/At Risk (%) (Cohort 2 200 mg BID): 2/16 (12.5%) | Actinic keratosis: # Events (Cohort 2 200 mg BID): 1 | Actinic keratosis: Affected/At Risk (%) (Cohort 2 200 mg BID): 1/16 (6.25%) | Acute kidney injury: # Events (Cohort 2 200 mg BID): 2 | Acute kidney injury: Affected/At Risk (%) (Cohort 2 200 mg BID): 2/16 (12.5%) | Acute respiratory distress syndrome: # Events (Cohort 2 200 mg BID): 0 | Acute respiratory distress syndrome: Affected/At Risk (%) (Cohort 2 200 mg BID): 0/16 (0%) | Adrenal insufficiency: # Events (Cohort 2 200 mg BID): 0 | Adrenal insufficiency: Affected/At Risk (%) (Cohort 2 200 mg BID): 0/16 (0%) | Alanine aminotransferase increased: # Events (Cohort 2 200 mg BID): 4 | Alanine aminotransferase increased: Affected/At Risk (%) (Cohort 2 200 mg BID): 3/16 (18.75%) | All grade ALT/AST increased, No. (%) (Cohort 2 200 mg BID): 5 (31) | All grade Cough, No. (%) (Cohort 2 200 mg BID): 4 (25) | All grade Diarrhea, No. (%) (Cohort 2 200 mg BID): 5 (31) | All grade Dyspnea, No. (%) (Cohort 2 200 mg BID): 6 (38) | All grade Fatigue, No. (%) (Cohort 2 200 mg BID): 3 (19) | All grade Headache, No. (%) (Cohort 2 200 mg BID): 3 (19) | All grade Hypertension, No. (%) (Cohort 2 200 mg BID): 2 (13) | All grade Nausea, No. (%) (Cohort 2 200 mg BID): 4 (25) | All grade Peripheral edema, No. (%) (Cohort 2 200 mg BID): 4 (25) | All grade URI, No. (%) (Cohort 2 200 mg BID): 9 (56) | All-Cause Mortality, % (Cohort 2 200 mg BID): (18.75%) | All-Cause Mortality, Affected/At Risk (Cohort 2 200 mg BID): 3/16 | Anaemia: # Events (Cohort 2 200 mg BID): 8 | Anaemia: Affected/At Risk (%) (Cohort 2 200 mg BID): 4/16 (25%) | Anal incontinence: # Events (Cohort 2 200 mg BID): 0 | Anal incontinence: Affected/At Risk (%) (Cohort 2 200 mg BID): 0/16 (0%) | Anxiety: # Events (Cohort 2 200 mg BID): 3 | Anxiety: Affected/At Risk (%) (Cohort 2 200 mg BID): 2/16 (12.5%) | Any AE, No. (%) (Cohort 2 200 mg BID): 16 (100) | Arthralgia: # Events (Cohort 2 200 mg BID): 1 | Arthralgia: Affected/At Risk (%) (Cohort 2 200 mg BID): 1/16 (6.25%) | Aspartate aminotransferase increased: # Events (Cohort 2 200 mg BID): 2 | Aspartate aminotransferase increased: Affected/At Risk (%) (Cohort 2 200 mg BID): 2/16 (12.5%) | Asthenia: # Events (Cohort 2 200 mg BID): 1 | Asthenia: Affected/At Risk (%) (Cohort 2 200 mg BID): 1/16 (6.25%) | Atelectasis: # Events (Cohort 2 200 mg BID): 0 | Atelectasis: Affected/At Risk (%) (Cohort 2 200 mg BID): 0/16 (0%) | Back pain: # Events (Cohort 2 200 mg BID): 2 | Back pain: Affected/At Risk (%) (Cohort 2 200 mg BID): 2/16 (12.5%) | Balance disorder: # Events (Cohort 2 200 mg BID): 1 | Balance disorder: Affected/At Risk (%) (Cohort 2 200 mg BID): 1/16 (6.25%) | Basal cell carcinoma: # Events (Cohort 2 200 mg BID): 1 | Basal cell carcinoma: Affected/At Risk (%) (Cohort 2 200 mg BID): 1/16 (6.25%) | Benign prostatic hyperplasia: # Events (Cohort 2 200 mg BID): 0 | Benign prostatic hyperplasia: Affected/At Risk (%) (Cohort 2 200 mg BID): 0/16 (0%) | Blepharitis: # Events (Cohort 2 200 mg BID): 0 | Blepharitis: Affected/At Risk (%) (Cohort 2 200 mg BID): 0/16 (0%) | Blister: # Events (Cohort 2 200 mg BID): 3 | Blister: Affected/At Risk (%) (Cohort 2 200 mg BID): 2/16 (12.5%) | Blood alkaline phosphatase increased: # Events (Cohort 2 200 mg BID): 1 | Blood alkaline phosphatase increased: Affected/At Risk (%) (Cohort 2 200 mg BID): 1/16 (6.25%) | Blood chloride decreased: # Events (Cohort 2 200 mg BID): 1 | Blood chloride decreased: Affected/At Risk (%) (Cohort 2 200 mg BID): 1/16 (6.25%) | Blood cholesterol increased: # Events (Cohort 2 200 mg BID): 0 | Blood cholesterol increased: Affected/At Risk (%) (Cohort 2 200 mg BID): 0/16 (0%) | Blood creatine increased: # Events (Cohort 2 200 mg BID): 1 | Blood creatine increased: Affected/At Risk (%) (Cohort 2 200 mg BID): 1/16 (6.25%) | Blood creatine phosphokinase increased: # Events (Cohort 2 200 mg BID): 0 | Blood creatine phosphokinase increased: Affected/At Risk (%) (Cohort 2 200 mg BID): 0/16 (0%) | Blood creatinine increased: # Events (Cohort 2 200 mg BID): 1 | Blood creatinine increased: Affected/At Risk (%) (Cohort 2 200 mg BID): 1/16 (6.25%) | Blood loss anaemia: # Events (Cohort 2 200 mg BID): 0 | Blood loss anaemia: Affected/At Risk (%) (Cohort 2 200 mg BID): 0/16 (0%) | Bronchial secretion retention: # Events (Cohort 2 200 mg BID): 1 | Bronchial secretion retention: Affected/At Risk (%) (Cohort 2 200 mg BID): 1/16 (6.25%) | Bronchitis: # Events (Cohort 2 200 mg BID): 0 | Bronchitis: Affected/At Risk (%) (Cohort 2 200 mg BID): 0/16 (0%)
